Experiments:
[1] = Solubility of M4N in water-insoluble lipids (visual inspection); type: physicochemical; conditions: for solutions stable: corn oil; for stable at room temperature: sesame oil
[2] = tested on: C-33A, an HPV-negative human cervical cancer cell line; assay: Cell proliferation and cell death, trypan blue exclusion, C-33A cells; type: cell-based; conditions: for Proliferation Rate: treated/untreated cells
Experimental: M4N in 10% (w/v) HP-β-CD and 25% (v/v) PEG 300 (hereafter, the “CPE formulation”), M4N in 30% (w/v) HP-β-CD and 25% (v/v) PEG 300 (hereafter, the “CPE 25/30 formulation”) and M4N in 27% (w/v) HP-β-CD and 33% (v/v) PEG 300 (hereafter, the “CPE 33/27 formulation”) was tested for their effects on cell death and proliferation on two different tumor cell lines: HeLa, an HPV-18 positive human cervical cancer cell line, and C-33A, an HPV-negative human cervical cancer cell line M4N in DMSO was also tested in parallel. Both tumor cell lines were treated with increasing amounts of M4N: 0 μM, 20 μM, 40 μM, 60 μM and 80 μM, for 72 hr with the DMSO or the CPE formulation. Each formulation was added to total 1% of the growth media (Minimal Essential Medium with L-glutamine supplemented with 10% fetal bovine serum, 1 mM sodium pyruvate, 1× non-essential amino acid solution, and 1,000 IU/mL penicillin/1,000 μg/mL streptomycin solution). Control cells were grown under the same conditions and were left untreated. After 72 hr of treatment or no treatment, the total number of cells and the number of live cells in each sample were counted, using the trypan blue exclusion method. The cell proliferation rate and the percentage of dead cells in each sample were analyzed. Results of this experiment are shown in FIG. 1, FIG. 2, and Tables 6 through 12.
FIG. 1 is a graphical representation of the ratio of the number of treated cells/number of untreated cells plotted against increasing concentrations of M4N in either the DMSO formulation or the CPE formulation for treatment of the C-33A cells and HeLa cells. FIG. 2 is a graphical representation of the percentage of dead cells plotted against increasing concentrations of M4N and in either DMSO formulation or the CPE formulation for treatment of the two cancer cell lines, C-33A and HeLa cells in culture.

[3] = M4N 20 μM in CPE formulation, 72 hr
[4] = M4N 60 μM in CPE formulation, 72 hr
[5] = M4N 80 μM in CPE formulation, 72 hr

SMILES: COc1ccc(C[C@@H](C)[C@@H](C)Cc2ccc(OC)c(OC)c2)cc1OC [Formulation M4N, meso-1,4-bis(3,4-dimethoxyphenyl)-2,3-dimethylbutane]
- Dissolution After Heating ([1]; 100% Olive Oil, M4N 30 mg/mL, 60° C.): Y at 60 °C
- Stability Time at Room Temperature ([1]; 100% Sesame Oil, M4N 10 mg/mL): >3 days
- Stability Time at Room Temperature ([1]; 100% Sesame Oil, M4N 20 mg/mL): >3 days
- Dissolution After Heating ([1]; 100% Sesame Oil, M4N 20 mg/mL, 60° C.): Y at 60 °C
- Stability Time at Room Temperature ([1]; 100% Sesame Oil, M4N 30 mg/mL): <3 days
- Dissolution After Heating ([1]; 100% Sesame Oil, M4N 30 mg/mL, 60° C.): Y at 60 °C
- Stability Time at Room Temperature ([1]; 100% Sesame Oil, M4N 50 mg/mL): <1 days
- Dissolution After Heating ([1]; 100% Sesame Oil, M4N 50 mg/mL, 60° C.): Y at 60 °C
- Stability Time at Room Temperature ([1]; 100% Soybean Oil, M4N 10 mg/mL): >7 days
- Dissolution After Heating ([1]; 100% Soybean Oil, M4N 10 mg/mL, 60° C.): Y at 60 °C
- Dissolution After Heating ([1]; 100% Soybean Oil, M4N 30 mg/mL, 60° C.): Y at 60 °C
- Dissolution After Heating ([1]; 100% Soybean Oil, M4N 50 mg/mL, 60° C.): Y at 60 °C
- Stability Time at Room Temperature ([1]; Peppermint Oil, M4N 1 mg/mL): >3 days
- Stability Time at Room Temperature ([1]; Peppermint Oil, M4N 10 mg/mL): >3 days
- Stability Time at Room Temperature ([1]; Peppermint Oil, M4N 20 mg/mL): >3 days
- Stability Time at Room Temperature ([1]; Peppermint Oil, M4N 40 mg/mL): >3 days
- Dissolution After Heating ([1]; Peppermint Oil, M4N 40 mg/mL, 40° C.): Y at 40 °C
- Stability Time at Room Temperature ([1]; Peppermint Oil, M4N 60 mg/mL): <3 days
- Dissolution After Heating ([1]; Peppermint Oil, M4N 60 mg/mL, 40° C.): Y at 40 °C
- Stability Time at Room Temperature ([1]; Peppermint Oil, M4N 100 mg/mL): <1 days
- Dissolution After Heating ([1]; Peppermint Oil, M4N 100 mg/mL, 40° C.): Y at 40 °C
- Stability Time at Room Temperature ([1]; Peppermint Oil, M4N 125 mg/mL): <1 days
- Dissolution After Heating ([1]; Peppermint Oil, M4N 125 mg/mL, 40° C.): Y at 40 °C
- Stability Time at Room Temperature ([1]; Sesame Oil, Tween ® 20 and Glycerol: 10% Oil emulsion in 90% saline, M4N 2.4 mg/mL): <1 days
- solutions stable ([1]; M4N 60 mg/mL): less than 1 day
- solutions stable ([1]; M4N 1 and 10 mg/mL): greater than 3 days
- solutions stable ([1]; M4N 20, 40 and 50 mg/mL): less than 3 days
- solution after cooling ([1]; olive oil, M4N 30 mg/mL, soluble at 60° C.): did not remain in solution after cooling
- stable at room temperature ([1]; M4N 10 mg/mL and 20 mg/mL): more than 3 days
- stable at room temperature ([1]; M4N 30 mg/mL): less than 3 days
- cell death, share of the cell population ([2]; 80 μM or […] M4N in CPE formulation): about 20%
- cell death, share of the cell population ([2]; 80 μM or […] M4N in DMSO formulation): about 40%
- M4N sufficient to cause about a 50% inhibition in cell proliferation ([2]; CPE formulation, 72 hr): ~7.2 µg/mL
- % Dead Cells [2, 3]: 7.0%
- % Viability [2, 3]: 93.0%
- Proliferation Rate [2, 3]: 0.43
- % Dead Cells ([2]; M4N 20 μM in DMSO, 72 hr): 17.4%
- % Viability ([2]; M4N 20 μM in DMSO, 72 hr): 82.6%
- Proliferation Rate ([2]; M4N 20 μM in DMSO, 72 hr): 0.20
- Proliferation Rate ([2]; M4N 40 μM in CPE formulation, 72 hr): 0.43
- % Dead Cells ([2]; M4N 40 μM in DMSO, 72 hr): 33.0%
- % Viability ([2]; M4N 40 μM in DMSO, 72 hr): 67.0%
- Proliferation Rate ([2]; M4N 40 μM in DMSO, 72 hr): 0.15
- % Dead Cells [2, 4]: 10.6%
- % Viability [2, 4]: 89.4%
- Proliferation Rate [2, 4]: 0.22
- % Dead Cells ([2]; M4N 60 μM in DMSO, 72 hr): 39.6%
- % Viability ([2]; M4N 60 μM in DMSO, 72 hr): 60.4%
- Proliferation Rate ([2]; M4N 60 μM in DMSO, 72 hr): 0.14
- % Dead Cells [2, 5]: 22.5%
- % Viability [2, 5]: 77.5%
- Proliferation Rate [2, 5]: 0.15
- % Dead Cells ([2]; M4N 80 μM in DMSO, 72 hr): 43.3%
- % Viability ([2]; M4N 80 μM in DMSO, 72 hr): 56.7%
- Proliferation Rate ([2]; M4N 80 μM in DMSO, 72 hr): 0.11
- Cell proliferation rate ([2]; M4N in DMSO or CPE formulation vs non-M4N-treated controls in the same formulation): reduced
